In patent US20040162337A1, “Chemical compounds having therapeutic activities in treating cancer” (priority 2003, published 2004):
Entries after “also recorded” stand apart in the source; their conditions may differ.

Legend:
MDR KB-V1 cells [1] = assay: Doxorubicin accumulation assay (flow cytometry), KB-V1; format: cell-based, human
Description: (§1) Data was collected with CellQuest Software and analysed with ModFitLT V2.0. Mean fluorescence intensities of 1×10^4 drug-treated cells were quantified and compared with the APC untreated cells. […] A negative control test was also performed.

MDR KB-V1 cells [2] = assay: Combination Index (CI-isobologram) of APC and doxorubicin, KB-V1; format: cell-based, human; conditions: APC 2.0219 μM to 129.3996 μM with doxorubicin, particularly fractional kill greater than 50%
Source text: (§2) In this experiment, the CI-isobologram by Chou and Talalay was used to determine the Combination Index (CI) of APC and doxorubicin. In order to understand the synergistic effect of APC with a conventional cancer drug, a number of combinations of drug concentrations were used in the combination studies. A mutually non-exclusive equation was used to determine the CIs, and the equation is illustrated and explained in the Appendix section below. CI>1, CI=1, and CI<1 indicate antagonism, additive effect, or synergism, respectively. The explanation of the determination of combination indices (CI) is provided in the Appendix section towards the end of the description.
(§3) The Chou and Talalay (Chou T C; Talay P. Adv Enzyme Regul 1984 22:27-55) combination index CI-isobologram equation for two-drug combination is: [formula]
(§4) Firstly, the Din (Median Dose or LD50) and m of each treatment was determined according to the Median-Effect Plot. […] Combination Indices (CI) were calculated at various fractional kill (fa).
(§5) The CI-isobologram by Chou and Talalay was used to determine the Combination Indices (CI) of APC and doxorubicin. […] The mutually non-exclusive equations were used to determine the CIs and each CI was calculated from the mean affected fraction at each drug ratio concentration.

P-glycoprotein (P-gp) = assay: Western blotting of P-gp; format: cell-based, human; conditions: KB-3-1 and KB-V1 cells, 1× and 2× dose of LD50
Description: (§6) For protein analysis of P-gp and actin, cells were lysed in ice-cold lysis buffer (1% sodium deoxycholate, 0.1% SDS, 1% Triton X-100, 2 mM phenylmethylsulphonyl fluoride, 1% aprotinin). Total lysates were subjected to SDS/PAGE and electrotransferred to nitrocellulose membranes (Bio-Rad). Membranes were then incubated with anti-P-gp or anti-β-actin antibody (Calbiochem) in blocking buffer (10 mM Tris pH7.5, 100 mM NaCl, 0.1% Tween 20, 5% non-fat dry milk) for 1 hour at room temperature before incubation with horseradish-peroxidase-conjugated anti-(rabbit IgG) or anti-(mouse IgG) antibody (Gibco BRL) for 1 hour at room temperature. Immunobinding was detected by the ECL method (Amersham). β-actin polyclonal antibody (Oncogene Science, Uniondale, N.Y., USA) was used as internal standard. Drug-sensitive KB-3-1 was used as control experiments.

KB-3-1 cells [3] = assay: Doxorubicin accumulation assay (flow cytometry), KB-3-1; format: cell-based, human; conditions: pre-treatment, then 2 μM doxorubicin 30 min
Description: as §1

KB-V1 cells = assay: Apoptosis study by DNA ladder, KB-V1; format: cell-based, human; conditions: 24 hours
Description: (§7) This experiment was a continuation of Experiment 7. Apoptotic studies by DNA ladder was carried out for 24 hours with drug treatment at different concentrations (17.26 μM, 34.52 μM & 172.56 μM) of APC. A total of eight groups of cells were used. 5×10^6 cells were washed in PBS. Their genomic DNA was extracted using Apoptotic DNA Ladder Kit-Best. Nr. 1 835 246 (Roche) according to Manufacturer's manual. DNA was analyzed by electrophoresis in 2% agarose gel containing 0.1% ethidium bromide in TAE buffer (99v, 30 min). DNA bands were observed and recorded by Multi-Imager (Bio-Rad, California, USA).

MDR1 mRNA = assay: Reverse transcription-PCR of MDR1; format: cell-based, human; conditions: KB-3-1 and KB-V1 cells, 1× and 2× dose of LD50
Description: (§8) 1 μg of total RNA isolated from cells using High Pure™ RNA Isolation Kits (Roche) was incubated with 100 ng random primers (Gibco BRL) and DEPC-treated water (total volume 10 μl) for 10 min at 65° C., then for 5 min on ice. Reverse transcription mixture contained 4 μl of 5× reaction buffer (50 mM Tris-HCl, 100 mM NaCl, 1 mM EDTA, 10 mM DTE, 0.05% polydocanol v/v, 50% glycerol v/v, pH 8.4), 2 μl 10 mM dNTP, 2 μl 100 mM dithiothreitol and 1 μl 50 units/μl Expand™ Reverse Transcriptase (Roche). The reaction lasted for 1.5 hours at 42° C. PCR amplifications were carried out using Expand™ Long Template PCR System (Roche). The primers used were cDNA sequences of p-glycoprotein (P-gp) SEQ ID NO. 1 (sense strand) and SEQ ID NO. 2 (anti-sense strand); cDNA sequences of β-actin SEQ ID NO. 3 (sense strand) and SEQ ID NO. 4 (anti-sense strand). […] of [α-^32P]dATP was added to 25 μl amplification reaction mix. The PCR was performed in a Gene Cycler™ (Bio-Rad) for 27 cycles, consisting of 1 min at 94° C., 1 min at 57° C. and 1 min at 72° C. The samples were heated for 5 min at 94° C. before the first cycle, and the extension time was lengthened to 10 min during the last cycle. PCR products resulted therefrom were size-fractionated on 10% polyacrylamide gel. Autoradiography was carried out with BioMax film (Kodak). Drug-sensitive KB-3-1 was used as control experiments. […]

actin = assay: Western blotting of actin; format: cell-based, human; conditions: KB-3-1 and KB-V1 cells, 1× and 2× dose of LD50
Description: as §6

β-Actin = assay: Reverse transcription-PCR of β-Actin (internal standard); format: cell-based, human; conditions: KB-3-1 and KB-V1 cells, 1× and 2× dose of LD50
Description: as §8

KB-3-1 cells [4] = assay: Combination Index (CI-isobologram) of APC and doxorubicin, KB-3-1; format: cell-based, human
Source text: as §2, §3, §4, §5

KB-3-1 cells [5] = assay: Apoptosis study by DNA ladder, KB-3-1; format: cell-based, human; conditions: 24 hours
Description: In this experiment, three groups of KB-3-1 cells were treated for 24 hours at different concentrations (17.26 μM, 34.52 μM & 172.56 μM) of APC. A control group of KB-3-1 cells was treated as negative control for the same amount of time. Approximately 5×10^6 cells from each of the four groups were washed in phosphate buffered saline (PBS) and their genomic DNA was extracted using Apoptotic DNA Ladder Kit-Best. Nr. 1 835 246 (Roche) according to the manufacturer's manual. The extracted DNA was analyzed by electrophoresis in 2% agarose gel containing 0.1% ethidium bromide in tris galacial acetic acid (TAE) buffer for 30 minutes at 99v. DNA bands of the gel were observed and recorded by Multi-Imager (Bio-Rad, California, USA).
as §7

MDR KB-V1 cells [6] = assay: Sulfo-Rhodamine B (SRB) cytotoxicity assay, KB-V1; format: cell-based, human; conditions: 3-day dose-response
Description: In the following experiments, tests were conducted using the human cancer cell lines KB-3-1 and KB-V1. The MDR cancer cells KB-V1 were selected from drug sensitive KB-3-1 cells treated by vinblastine. The cell lines (American Type Culture Collection, MD, USA) were routinely grown in MEM (Gibco, MD, USA) containing 10% fetal bovine serum (FBS) and 1% antibiotic solution (Gibco, MD, USA), and 300 ng/ml of vinblastine for maintenance of drug resistance for KB-V1 cells. Cultures of the cells were maintained in a humidified 5% CO2 incubator.
The color intensity of SRB, positively correlated to number of cell, was estimated by correlating to OD at 515 nm. The concentration of DMSO and ethanol in the drug solvent of APC was 20 wt % and 80 wt % respectively. The concentration of DMSO in each culture sample was ≦0.1%.

[7] = tested on: human carcinoma KB-3-1 cancer cell line; assay: Sulfo-Rhodamine B (SRB) cytotoxicity assay, KB-3-1; format: cell-based; conditions: drug-sensitive KB-3-1 cells, 72 hours, median-effect plot
Description: Assays were carried out in triplicate against human carcinoma KB-3-1 cancer cell line. […] The treatment of KB-3-1 cancer cells lasted for 72 hours and the cell number in each sample was estimated by correlating to optical density (OD) at 515 nm. […] The median dose value was determined from plots of median effects and was equivalent to LD50 (Skehan P.; Storeng R.; Scudiero D.; Monks A.; McMahon J.; Vistica D; Warren J T.; Bokesch H.; Kenney S.; Boyd M R.; J Natl Cancer Inst 1990 82:1107-1112).

| Structure (SMILES) | accumulation of doxorubicin in cells (MDR KB-V1 cells [1]; KB-V1 cells, pre-treatment, then 2 μM doxorubicin 30 min) | increase of doxorubicin accumulation (MDR KB-V1 cells [1]; MDR KB-V1 cells, 6 hours incubation at LD50, then 2 μM doxorubicin 30 min) | synergism with doxorubicin (MDR KB-V1 cells [2]) | level of P-gp proteins (P-glycoprotein (P-gp)) | accumulation of doxorubicin in cells (KB-3-1 cells [3]) | DNA ladder, state of DNA (KB-V1 cells; 17.26 μM) | DNA ladder, state of DNA (KB-V1 cells; 172.6 μM) | MDR1 mRNA level (MDR1 mRNA) | level of actin (actin) | β-Actin mRNA level (β-Actin) | synergism with doxorubicin (KB-3-1 cells [4]; APC 2.0219 μM to 129.3996 μM with doxorubicin) | Combination Index (CI) (KB-3-1 cells [4]; drug combination C (doxorubicin 0.0431 μM, APC 129.3996 μM), all fractional kill) | DNA ladder, state of DNA (KB-3-1 cells [5]; 17.26 μM) | apoptosis (DNA fragmentation, DNA ladder) (KB-3-1 cells [5]; 172.6 μM) | LD50 (MDR KB-V1 cells [6]) | LD50 [7] |
| --- | --- | --- | --- | --- | --- | --- | --- | --- | --- | --- | --- | --- | --- | --- | --- | --- |
| C/C=C(/C)C(=O)OC1C(OC(C)=O)c2c(ccc3ccc(=O)oc23)OC1(C)C (stereo not drawn) [APC, cis-3′-angeloyl-4′-acetoxy-khellactone] | substantially higher accumulation of doxorubicin | approximately 25% | relatively high synergistic interactions | lower | more doxorubicin accumulated | slightly cut | cut in larger extent | reduced significantly | not affected | not affected | relatively low synergism; also recorded: little or no synergistic interactions | greater than 1 | little affected | significantly more apoptosis | 17.2656 ± 8.2441 µM | 41.9153 ± 2.8016 µM |
| COc1cccc2c1C(=O)c1c(O)c3c(c(O)c1C2=O)C[C@@](O)(C(=O)CO)C[C@@H]3O[C@H]1C[C@H](N)[C@H](O)[C@H](C)O1 [doxorubicin, reference compound] |  |  |  |  |  |  |  |  |  |  |  |  |  |  | 3.0510 ± 0.2846 µM |  |
